Key:
Format in all cases: cell-based
[1] = tested on: T-47D cells; assay: Inhibition of cell proliferation in T-47D cells (CCK-8, 6 days); settings: 6 days of treatment
Procedure, shortened: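 T-47D cells at 3,000 cells/well in RPMI 1640 with 10% FBS were exposed to a concentration series of PROTAC compounds for 6 days at 37 °C, 5% CO2. Viability was read by CCK-8, and IC50 values were derived for proliferation inhibition.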

[2] = target: T1, ERα (Homo sapiens, UniProt P03372); assay: Degradation of ERα in MCF-7 cells (immunoblotting, 4 h)
T1 sequence (P03372 1-595): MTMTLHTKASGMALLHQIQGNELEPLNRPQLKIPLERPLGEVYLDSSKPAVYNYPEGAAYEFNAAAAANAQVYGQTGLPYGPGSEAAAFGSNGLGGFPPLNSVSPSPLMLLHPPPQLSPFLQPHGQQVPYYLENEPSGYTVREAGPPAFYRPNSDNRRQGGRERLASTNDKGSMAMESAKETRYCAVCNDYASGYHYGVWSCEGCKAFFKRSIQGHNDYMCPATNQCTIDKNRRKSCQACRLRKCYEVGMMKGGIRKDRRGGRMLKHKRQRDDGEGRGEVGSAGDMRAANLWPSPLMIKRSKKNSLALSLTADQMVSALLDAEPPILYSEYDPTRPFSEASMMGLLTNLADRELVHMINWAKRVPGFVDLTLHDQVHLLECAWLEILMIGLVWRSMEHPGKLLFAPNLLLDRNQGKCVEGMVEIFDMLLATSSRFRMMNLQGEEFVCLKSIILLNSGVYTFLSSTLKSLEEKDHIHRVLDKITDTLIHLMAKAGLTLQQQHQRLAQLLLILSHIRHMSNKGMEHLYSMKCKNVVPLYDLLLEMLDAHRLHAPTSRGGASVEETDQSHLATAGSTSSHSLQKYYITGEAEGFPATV
Procedure, shortened: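 MCF-7 cells treated 4 h at 37°C with compounds at 0.15-1000nM final. ERα in lysates measured by immunoblot, with band grayscale normalized to an internal reference protein. Degradation rate calculated against DMSO-treated control.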

[3] = target: T1, ERα; assay: Degradation of ERα in T-47D cells (immunoblotting, 4 h); design: host or cells: T-47D
Procedure, shortened: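 T-47D cells were treated with compound (final 0.15-1000 nM, DMSO) for 4 h at 37°C, 5% CO2. Cells were lysed in RIPA buffer with protease inhibitor, and ERα protein in the cleared lysate was measured by immunoblotting.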

[4] = tested on: MCF-7 cells; assay: Inhibition of cell proliferation of MCF-7 cells (CCK-8, 9 days)
Procedure, shortened: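 MCF-7 cells seeded at 800 cells/well in DMEM with 10% FBS, exposed to a range of compound concentrations for 9 days at 37°C, 5% CO2. Viability read by CCK-8; IC50 derived for proliferation inhibition.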

[5] = treated for 9 days, CCK-8 kit (Table 6)

Structure (SMILES)	IC50 ([1]; Table 3)	Degradation rate (%) of ERα in MCF-7 cells ([2]; 1nM compound)	Degradation rate (%) of ERα in MCF-7 cells ([2]; 10nM compound)	Degradation rate (%) of ERα in T-47D cells ([3]; 1nM compound)	Degradation rate (%) of ERα in T-47D cells ([3]; 10nM compound)	IC50 [4, 5]	IC50 ([1]; Table 2)	IC50 ([4]; 9 days of treatment, CCK-8, Table 5)
C[C@@H]1Cc2c([nH]c3ccccc23)[C@@H](c2c(F)cc(N3CCC4(CCN(CC(=O)N5CCC6(CC5)COc5c6ccc6c5CN(C5CCC(=O)NC5=O)C6=O)C4)CC3)cc2F)N1CC(F)F (stereo partly shown) [A111]	1.2 nM	39%	74%	49%	82%	93.6 nM		
C[C@@H]1Cc2c([nH]c3ccccc23)[C@@H](c2c(F)cc(N3CCC4(CCN(CC(=O)N5CCC6(CC5)COc5c6ccc6c5CN(C5CCC(=O)NC5=O)C6=O)CC4)CC3)cc2F)N1CC(F)F (stereo partly shown) [A112]	2.01 nM	15%	63%	40%	78%	59.4 nM		
CCOC(=O)[C@H]1CC(N2CCC3(CC2)COc2c3ccc3c2CN(C2CCC(=O)NC2=O)C3=O)CCN1C1CC2(CCN(c3ccc([C@@H]4c5ccc(O)cc5CC[C@@H]4c4ccccc4)cc3)CC2)C1 (stereo partly shown) [A113]	4.61 nM	4%	52%	26%	64%	21.6 nM		
C[C@@H]1Cc2c([nH]c3ccccc23)[C@@H](c2c(F)cc(N3CCN(C[C@H]4CC[C@H](C(=O)N5CCC6(CC5)COc5c6ccc6c5CN(C5CCC(=O)NC5=O)C6=O)CC4)CC3)cc2F)N1CC(F)F (stereo partly shown) [A114]	1.18 nM	46%	62%	48%	73%	10.3 nM		
O=C1CCC(N2Cc3c(ccc4c3OCC43CCN(C[C@H]4CC[C@H](C#Cc5ccc([C@@H]6c7ccc(O)cc7CC[C@@H]6c6ccccc6)cc5)CC4)CC3)C2=O)C(=O)N1 (stereo partly shown) [A115]	10.9 nM	0%	16%	17%	43%	60.6 nM		
O=C1CCC(N2Cc3c(ccc4c3OCC43CCN(C4CCN(CC5CCN(c6ccc([C@@H]7c8ccc(O)cc8CC[C@@H]7c7ccccc7)cc6)CC5)C(=O)C4)CC3)C2=O)C(=O)N1 (stereo partly shown) [A116]	1.61 nM	25%	4%	28%	23%	25200 nM		
C[C@@H]1Cc2c(ccc3[nH]ncc23)[C@@H](c2ccc(N3CCN(C[C@H]4CC[C@H](C(=O)N5CCC6(CC5)COc5c6ccc6c5CN(C5CCC(=O)NC5=O)C6=O)CC4)CC3)cn2)N1CC(F)(F)F (stereo partly shown) [A117]	10.1 nM	48%	47%	66%	77%	63.3 nM		
O=C1CCC(N2Cc3c(ccc4c3OCC43CCN(C(=O)CC4CCN(C(=O)C5CCN(c6ccc([C@@H]7c8ccc(O)cc8CC[C@@H]7c7ccccc7)cc6)CC5)CC4)CC3)C2=O)C(=O)N1 (stereo partly shown) [A123]	1.34 nM	29%	61%	66%	84%	164 nM		
O=C1CCC(N2C(=O)c3cc4c(cc3C2=O)OC2(CC4)CN(C3CCC4(CC3)CN(c3ccc(C5c6ccc(O)cc6CCC5c5ccccc5)cc3)C4)C2)C(=O)N1 (stereo not shown) [B7]			-6%		19%	> 100 nM	1000 nM	
O=C1CCC(N2Cc3cc4c(cc3C2=O)OC2(CC4)CN(C3CCC4(CC3)CN(c3ccc(C5c6ccc(O)cc6CCC5c5ccccc5)cc3)C4)C2)C(=O)N1 (stereo not shown) [B8]	31 nM		16%		33%	6.57 nM	2.9 nM	90 nM
